Article PMC7129073 (Clinical Microbiology and Infection, 2015)
In brackets after ≈: the same amount, converted by molar mass. Where two headings read alike, the source gives them in different places.

What was measured:
Escherichia coli O157:H7 = experiment: Kirby-Bauer susceptibility; type: cell-based; conditions: 30 strains, 1990–2003
[1] = tested on: viridans group streptococci (VGS); experiment: MIC; type: cell-based
S. pneumoniae (SPN) = experiment: NCCLS broth microdilution, fluoroquinolones 1999–2004; type: cell-based, Streptococcus pneumoniae; conditions: Streptococcus pneumoniae, read-out: MIC90 during the six years, 1999–2004
[2] = tested on: Streptococcus agalactiae strains P0162 and P0425; experiment: Microdilution; type: cell-based
Nocardia spp. [3] = experiment: Time-kill at peak-serum concentrations, seven strains; type: cell-based; conditions: of seven strains; 24, 72 h
MSSA = experiment: Agar dilution MIC; type: cell-based, Staphylococcus aureus
MRSA = experiment: Agar dilution MIC; type: cell-based, Staphylococcus aureus
[4] = tested on: methicillin susceptible Staphylococcus aureus; experiment: NCCLS agar dilution MIC; type: cell-based
[5] = tested on: methicillin resistant Staphylococcus aureus; experiment: NCCLS agar dilution MIC; type: cell-based
[6] = tested on: biofilms of S. aureus (SA204 and SA195) and S. epidermidis (ATCC35983 and ATCC35984); experiment: Antibiotic lock, in vitro biofilm on polyurethane film, viable counts; type: cell-based, Staphylococcus species; conditions: any of the time intervals examined
Acinetobacter = experiment: Disk diffusion; type: cell-based; conditions: 37 isolates selected as resistant to beta-lactams
Pseudomonas spp. = experiment: MIC; type: cell-based
P. aeruginosa = experiment: Disk diffusion, urine isolates of BPH patients
Salmonella spp. = experiment: Agar dilution susceptibility, gastroenteritis isolates Cuba; type: cell-based; conditions: 34 strains, 2002
[7] = tested on: Salmonella serotype Enteritidis; experiment: Disk diffusion, food isolates Spain; type: cell-based; conditions: n = 96
[8] = tested on: Salmonella serotype Typhimurium; experiment: Disk diffusion, food isolates Spain; type: cell-based; conditions: n = 53
[9] = tested on: Salmonella, other 49 serotypes; experiment: Disk diffusion, food isolates Spain; type: cell-based; conditions: n = 115
N.gonorrhoeae = experiment: microbe, parasite or virus in culture; type: cell-based; conditions: Neisseria gonorrhoeae
Nocardia spp. [10] = experiment: E-test on Mueller Hinton agar, 81 clinical isolates; type: cell-based
S. pneumoniae = experiment: MIC of invasive strains, Saint George Hospital 2001–2004; type: cell-based, Streptococcus pneumoniae
H. influenzae = experiment: Disk diffusion, sputum isolates Athens 2001–2004; type: cell-based, Haemophilus influenzae
E. coli = experiment: Disk diffusion, urine isolates of BPH patients; conditions: strains isolated after operative intervention
Pseudomonas aeruginosa = experiment: MIC, strains from cystic fibrosis patients; conditions: by MIC
enterococci = experiment: Disk diffusion and E-test, faecal isolates of cancer patients; type: cell-based, Enterococcus; conditions: 38 strains
[11] = tested on: glycopeptide intermediate Staphylococcus species (GISS); experiment: VITEK II, screening plate and E test, blood isolates; type: cell-based, coagulase-negative Staphylococci
CA-MRSA = experiment: MIC, MBC; type: cell-based, Staphylococcus aureus; conditions: time kill, two strains
MDR-MRSA = experiment: MIC, MBC; type: cell-based, Staphylococcus aureus; conditions: time kill, two strains

## NC[C@H]1O[C@H](O[C@H]2[C@H](O)[C@@H](O[C@H]3O[C@H](CO)[C@@H](O)[C@H](N)[C@H]3O)[C@H](N)C[C@@H]2N)[C@H](O)[C@@H](O)[C@@H]1O [kanamycin]
Escherichia coli O157:H7
  resistant strains: 3.3%

## COc1c(N2C[C@@H]3CCCN[C@@H]3C2)c(F)cc2c(=O)c(C(=O)O)cn(C3CC3)c12 [moxifloxacin]
[1]
  MIC50: 0.12 µg/mL (≈ 0.299 µM)
  MIC90: 0.25 µg/mL (≈ 0.623 µM)
S. pneumoniae (SPN)
  MIC90: 0.12 to 0.25 µg/mL (≈ 0.299 to 0.623 µM)
[2]; strain P0162 (ParC Ser79Phe, GyrA Glu85Ala)
  MIC: 0.5 µg/mL (≈ 1.25 µM)
[2]; strain P0425 (ParC Ser79Phe, GyrA Glu85Lys)
  MIC: 2 µg/mL (≈ 4.98 µM)
Nocardia spp. [3]
  strains with bactericidal activity (≥3 log10 cfu/ml decrease): 2 strains
MSSA; Staphylococcus aureus, MSSA
  MIC50: < 0.025 µg/mL
  MIC90: < 0.0625 µg/mL
MSSA; n = 200
  MIC range: 0.025 to 2.0 mg/mL
MRSA; Staphylococcus aureus, MRSA
  MIC50: < 4 µg/mL
  MIC90: < 4 µg/mL
MRSA; n = 50
  MIC range: 4 µg/mL (≈ 9.96 µM)
[4]; Staphylococcus aureus
  MIC50: 0.06 µg/mL (≈ 0.149 µM)
  MIC90: 0.12 µg/mL (≈ 0.299 µM)
[4]; n = 41
  MIC range: 0.03 to 8 mg/L
[5]; Staphylococcus aureus
  MIC50: 2 µg/mL (≈ 4.98 µM)
  MIC90: 8 µg/mL (≈ 19.9 µM)

## CCOc1ccc2ccccc2c1C(=O)N[C@@H]1C(=O)N2[C@@H]1SC(C)(C)[C@@H]2C(=O)O [nafcillin]
[6]
  significant biofilm killing: not achieved

## CCN1CCN(C(=O)N[C@@H](C(=O)N[C@@H]2C(=O)N3[C@@H]2SC(C)(C)[C@@H]3C(=O)O)c2ccccc2)C(=O)C1=O [piperacillin]
Acinetobacter
  resistant isolates: 100.0%
Pseudomonas spp.
  susceptible strains: 84%
P. aeruginosa
  resistance: 73.3%

## CN[C@@H]1[C@H](O)[C@H](NC)[C@H]2O[C@@]3(O)C(=O)C[C@@H](C)O[C@H]3O[C@@H]2[C@H]1O [spectinomycin]
Salmonella spp.
  resistance: 50%
[7]
  resistance rate (NCCLS M100-S13): 99%
[8]
  resistance rate (NCCLS M100-S13): 87%
[9]
  resistance rate (NCCLS M100-S13): 100%
N.gonorrhoeae
  MIC: 16 µg/mL (≈ 48.1 µM)
N.gonorrhoeae; strain 76mu6
  MIC: 16 µg/mL (≈ 48.1 µM)
N.gonorrhoeae; strain 76mu10
  MIC: 8 µg/mL (≈ 24.1 µM)
N.gonorrhoeae; strain 92mu6
  MIC: 8 µg/mL (≈ 24.1 µM)
N.gonorrhoeae; strain 92mu13
  MIC: 4 µg/mL (≈ 12 µM)

## COc1cc(Cc2cnc(N)nc2N)cc(OC)c1OC [trimethoprim]
Escherichia coli; 1993, E.coli resistant to ampicillin
  resistance: 28%
Escherichia coli; 1993, E.coli sensitive to ampicillin
  resistance: 3%
Escherichia coli; 2003, E.coli resistant to ampicillin
  resistance: 43%
Escherichia coli; 2003, E.coli sensitive to ampicillin
  resistance: 4%

## amoxicillin/clavulanate
Nocardia spp. [10]
  MIC50: 2 mg/L
  MIC90: 8 mg/L
S. pneumoniae
  % S: 100%
  %R: 0%
H. influenzae; 2001–2002
  resistance rate: 0%
H. influenzae; 2003–2004
  resistance rate: 4.6%
E. coli
  resistance: 93.1%

## colistin methanesulfonate
Pseudomonas aeruginosa
  Susceptible isolates: 98%

## teicoplanin
[1]; 83 isolates, tolerance to VA and TP
  tolerant isolates: 77.6%
[1]; 107 strains, 1990–2003
  MIC50: 0.06 µg/mL
  MIC90: 0.12 µg/mL
[1]; NCCLS
  susceptibility of all isolates: All isolates were susceptible
enterococci
  sensitivity of all isolated strains: All the isolated strains were sensitive
[11]; 26 strains
  MIC of resistant strains: 32 to 256 mg/L
[11]; 47 strains
  MIC of intermediate sensitive strains: 16 mg/L
CA-MRSA
  Δ Log10 CFU/ml: −1.86 Log10 CFU/ml
MDR-MRSA
  Δ Log10 CFU/ml: −3.82 Log10 CFU/ml
[4]; n = 41
  MIC50: 1 µg/mL
  MIC90: 1 µg/mL
  MIC range: 0.25 to 2 mg/L
[5]; n = 53
  MIC50: 1 µg/mL
  MIC90: 2 µg/mL
  MIC range: 0.5 to 8 mg/L
